# Earlier results, collected in patent US8580318B2, “Natural water soluble extracts for the inhibition of alpha-1-adrenergic receptors” (Naturamed Ltd., priority 2007, dated 2013).
# Tested on: serum prostate specific antigen (PSA)
# Settings: patients with BPH
smiles,measurement,value
"CC(C)(C)NC(=O)[C@H]1CC[C@H]2[C@@H]3CC[C@H]4NC(=O)C=C[C@]4(C)[C@H]3CC[C@]12C [finasteride, Finasteride]",decrease in serum prostate specific antigen (PSA) levels,approximately 50%
